Publication PMC6934184, “Selective DNA-PKcs inhibition extends the therapeutic index of localized radiotherapy and chemotherapy” (The Journal of Clinical Investigation, 2019)

Molecular target: T1, CAMK2D (CaMKII delta) (Homo sapiens, UniProt Q13557)
T1 construct: purchased Thermo Fisher Scientific (Life Technologies) SelectScreen
Experiment: SelectScreen Z'LYTE
Type: biochemical
Summary of the method: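 SelectScreen broad panel; activity (Z'LYTE, Adapta) plus binding formats. ATP: Km app for CSF1R Z'LYTE; 10 for CAMK1 Adapta. Readout = % per kinase.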

T1 sequence (Q13557 whole entry): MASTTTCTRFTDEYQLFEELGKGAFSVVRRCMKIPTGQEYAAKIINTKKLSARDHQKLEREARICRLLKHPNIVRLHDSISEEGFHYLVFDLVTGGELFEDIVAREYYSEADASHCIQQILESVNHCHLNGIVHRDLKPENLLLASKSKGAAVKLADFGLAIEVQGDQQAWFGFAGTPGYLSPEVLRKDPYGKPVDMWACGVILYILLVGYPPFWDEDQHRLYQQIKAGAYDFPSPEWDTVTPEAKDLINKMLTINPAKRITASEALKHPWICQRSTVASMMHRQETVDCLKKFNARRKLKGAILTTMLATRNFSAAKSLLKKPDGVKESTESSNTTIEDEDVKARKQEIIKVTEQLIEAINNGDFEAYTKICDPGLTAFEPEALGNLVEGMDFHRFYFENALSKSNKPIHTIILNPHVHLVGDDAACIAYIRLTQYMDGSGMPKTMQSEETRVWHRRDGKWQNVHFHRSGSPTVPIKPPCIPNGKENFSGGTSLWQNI

## CN(C(=O)CN1CCOCC1)c1ccc2sc3c(-c4cccc5c(=O)cc(N6CC7CCC(C6)O7)oc45)cccc3c2c1 [NU5455]
  inhibition at 1 µM: 9.3%
